Laboratory results: PubChem BioAssay AID2433 (Vanderbilt High Throughput Screening Facility, 2010)
The source made the active and inactive calls.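 How the source made its calls: active means a concentration-response curve whose fit quality R2 exceeds 0.5; inactive means the rest.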

Molecular target: Muscarinic acetylcholine receptor M5 (Homo sapiens) (UniProt P08912)
Experiment: M5 receptor positive allosteric modulation off-target check, dose response, selectivity assay for M1 muscarinic PAM project, cell-based, CHO-K1 M5, Fluo-4 calcium, ACh EC20 (AID 2433)
Details: CHO-K1 M5 cells; for % of max ACh response: at 30 µM (top of the series)

Sequence of Muscarinic acetylcholine receptor M5 (Homo sapiens) (P08912 whole entry, looked up): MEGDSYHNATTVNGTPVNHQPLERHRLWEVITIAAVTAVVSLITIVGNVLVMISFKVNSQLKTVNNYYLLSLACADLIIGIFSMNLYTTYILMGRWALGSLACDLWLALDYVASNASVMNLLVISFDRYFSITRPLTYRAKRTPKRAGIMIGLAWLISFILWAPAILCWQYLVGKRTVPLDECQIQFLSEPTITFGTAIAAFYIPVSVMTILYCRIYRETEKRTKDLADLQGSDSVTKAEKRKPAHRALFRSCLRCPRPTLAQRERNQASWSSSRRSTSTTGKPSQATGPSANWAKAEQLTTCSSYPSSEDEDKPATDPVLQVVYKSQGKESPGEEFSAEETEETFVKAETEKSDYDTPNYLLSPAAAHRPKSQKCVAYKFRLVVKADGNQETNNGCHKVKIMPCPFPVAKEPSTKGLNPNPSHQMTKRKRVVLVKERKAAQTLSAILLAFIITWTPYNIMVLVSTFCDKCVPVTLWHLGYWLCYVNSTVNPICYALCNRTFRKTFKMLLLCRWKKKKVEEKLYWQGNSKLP

| EC50 | % of max ACh response | SMILES |
| --- | --- | --- |
| inactive |  | Cn1cc(-c2ccc(CN3C(=O)C(=O)c4ccccc43)cc2)cn1 |
|  | inactive | Cn1cc(-c2cc(F)c(CN3C(=O)C(=O)c4ccccc43)c(F)c2)cn1 |
|  | inactive | Cn1cc(-c2ccc(CN3C(=O)C(=O)c4ccccc43)c(F)c2)cn1 |
